Earlier results as cited in paper PMC2791716 (Biotechnology and bioengineering, 2009).
Read-outs that look alike come from different tables or passages of the source.

How the values were obtained:
[1] = no reference given
[2] = system: cell adhesion to laminin-1; settings: ref Nakahara et al. 1996

Compound | minimum effective therapeutic concentration ([1]; systemic delivery) | minimum effective therapeutic concentration ([1]; systemic vascular concentration, converted from 50mg/kg) | inhibition of cell adhesion to laminin-1 [2]
COc1cccc2c1C(=O)c1c(O)c3c(c(O)c1C2=O)C[C@@](O)(C(=O)CO)C[C@@H]3O[C@H]1C[C@H](N)[C@H](O)[C@H](C)O1 [doxorubicin] | 50 mg/kg | approximately 90 μM | 
TWYKIAFQRNRK |  |  | 90%
